Measured values taken from patent publication US9247759B2, “Identification of human T2R receptors that respond to bitter compounds that elicit the bitter taste in compositions, and the use thereof in assays to identify compounds that inhibit (block) bitter taste in compositions and use thereof” (SENOMYX, INC., priority 2007, dated 2016).
“And” between values parts separate entries of the source, which are not always exact repeats. Equal values may be shown once. Read-outs that look alike come from different tables or passages of the source.

Columns and labels:
[1] = target: hT2R61 (Homo sapiens (Human), UniProt P59537); assay: hT2R panel inhibition, transient HEK293 G16g44, agonist Aristolochic Acid 25 nM; type: cell-based; settings: HEK293, compound at 25 μM; receptor activated to EC80 with the corresponding agonist; read-out: screening result against bitter receptor 61
Procedure, shortened: (§1)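 Functional inhibition format: single hT2R transient expression in a G16g44-stable line, bitter agonist at EC80, test compound effect expressed as reduction in receptor activity.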

[2] = target: hT2R10 (Homo sapiens (Human), UniProt Q9NYW0); assay: hT2R panel inhibition, transient HEK293 G16g44, agonist Strychnine 50 μM; type: cell-based; settings: HEK293, read-out: screening result against bitter receptor 10, compound at 25 μM; receptor activated to EC80 with the corresponding agonist
[3] = target: hT2R3 (Homo sapiens (Human), UniProt Q9NYW6); assay: hT2R panel inhibition, transient HEK293 G16g44, agonist Chloroquine pH6.5 50 μM; type: cell-based; settings: HEK293, compound at 25 μM; receptor activated to EC80 with the corresponding agonist; read-out: screening result against bitter receptor 3
Procedure, shortened: as §1

[4] = target: hT2R4 (Homo sapiens (Human), UniProt Q9NYW5); assay: hT2R panel inhibition, transient HEK293 G16g44, agonist Chloroquine pH6.5 5 mM; type: cell-based; settings: HEK293, compound at 25 μM; receptor activated to EC80 with the corresponding agonist; class symbols; read-out: screening result against bitter receptor 4
Experimental: (§2) Specifically, in order to evaluate the inhibitory selectivity of the Compound C compound, this compound was tested against 22 human T2Rs which were deorphaned by Senomyx. These receptors and the bitter ligands that activate these human T2Rs are reported in earlier patent applications which are incorporated by reference herein. These 22 human T2Rs are hT2R1, 3, 4, 5, 7, 8, 9, 10, 13, 14, 16, 44, 51, 54, 55, 61, 63, 64, 65, 67, 71 and 75. The amino acid and nucleic acid sequences of all of these T2Rs may be found in these earlier patent applications. These human T2Rs were each individually transiently transfected into HEK293 cells that stably express the promiscuous G protein G16g44 and functional assays were effected using these receptors as disclosed in these same patent applications. […] The ligands were used at EC80 concentration levels. The list of bitter ligands utilized and the tested ligand concentrations are contained in Table 5 of this example.
(§3) Relating to the foregoing, FIG. 5 contains experimental results wherein Compound C was tested with different agonist compounds. The inhibition activity is represented by the reduction of receptor activity in the presence of Compound C. […] These 13 hT2Rs are hT2R3, 7, 10, 14, 16, 44, 51, 55, 61, 63, 64, 65, and 71.

[5] = system: hT2R54; assay: hT2R panel inhibition, transient HEK293 G16g44, agonist Ranitidine 5 mM; type: cell-based, human; settings: compound at 25 μM; receptor activated to EC80 with the corresponding agonist
Procedure, shortened: as §1

[6] = target: hT2R75 (Homo sapiens (Human), UniProt P59540); assay: hT2R panel inhibition, transient HEK293 G16g44, agonist Strychnine 1 μM; type: cell-based; settings: HEK293, read-out: screening result against bitter receptor 75, compound at 25 μM; receptor activated to EC80 with the corresponding agonist
Experimental: as §2, §3

[7] = target: hT2R51 (Homo sapiens (Human), UniProt P59533); assay: hT2R panel inhibition, transient HEK293 G16g44, agonist Prop 2.5 μM; type: cell-based; settings: HEK293, compound at 25 μM; receptor activated to EC80 with the corresponding agonist; read-out: screening result against bitter receptor 51
Procedure, shortened: as §1

[8] = system: hT2R65; assay: hT2R panel inhibition, transient HEK293 G16g44, agonist Oleuropein 1 mM; type: cell-based, human; settings: compound at 25 μM; receptor activated to EC80 with the corresponding agonist
Procedure, shortened: as §1

[9] = target: T1, hT2R14 (Homo sapiens (Human), UniProt Q9NYV8); assay: hT2R panel inhibition, transient HEK293 G16g44, agonist Aristolochic Acid 2 μM; type: cell-based; settings: HEK293, compound at 25 μM; receptor activated to EC80 with the corresponding agonist; read-out: screening result against bitter receptor 14
Procedure, shortened: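 Agonist challenge was at EC80, with 0.5 mM andrographolide on hT2R8 and 2 μM aristolochic acid on hT2R14. Inhibition was measured in functional assays in HEK293 cells that stably carry the promiscuous G protein G16g44 and were transiently transfected with the individual receptor.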

[10] = target: hT2R71 (Homo sapiens (Human), UniProt P59536); assay: hT2R panel inhibition, transient HEK293 G16g44, agonist Picric Acid 10 μM; type: cell-based; settings: HEK293, compound at 25 μM; receptor activated to EC80 with the corresponding agonist; read-out: screening result against bitter receptor 71
Procedure, shortened: as §1

[11] = system: hT2R55; assay: hT2R panel inhibition, transient HEK293 G16g44, agonist Cinchonine 150 μM; type: cell-based, human; settings: compound at 25 μM; receptor activated to EC80 with the corresponding agonist
Procedure, shortened: as §1

[12] = target: hT2R64 (Homo sapiens (Human), UniProt P59538); assay: hT2R panel inhibition, transient HEK293 G16g44, agonist Aristolochic Acid 1 μM; type: cell-based; settings: HEK293, compound at 25 μM; receptor activated to EC80 with the corresponding agonist; read-out: screening result against bitter receptor 64
Procedure, shortened: as §1

[13] = target: T1, hT2R14; assay: hT2R14 antagonist high-throughput FLIPR assay, stable cell line with G16g44, agonist aristolochic acid; type: cell-based
Procedure, shortened: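 Compounds were co-applied with 3 μM aristolochic acid, a dose set to reach 70-80% of maximal hT2R14 activation. Read-out was FLIPR fluorescence in a stable HEK293 line co-expressing hT2R14 and G16g44.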

[14] = target: hT2R7 (Homo sapiens (Human), UniProt Q9NYW3); assay: hT2R panel inhibition, transient HEK293 G16g44, agonist Chloroquine pH6.5 10 mM; type: cell-based; settings: HEK293, compound at 25 μM; receptor activated to EC80 with the corresponding agonist; read-out: screening result against bitter receptor 7
Procedure, shortened: as §1

[15] = system: hT2R44; assay: hT2R panel inhibition, transient HEK293 G16g44, agonist Denatonium 0.5 μM; type: cell-based, human; settings: compound at 25 μM; receptor activated to EC80 with the corresponding agonist
Procedure, shortened: as §1

[16] = target: hT2R16 (Homo sapiens (Human), UniProt Q9NYV7); assay: hT2R panel inhibition, transient HEK293 G16g44, agonist Salicin 1 mM; type: cell-based; settings: HEK293, compound at 25 μM; receptor activated to EC80 with the corresponding agonist; read-out: screening result against bitter receptor 16
Procedure, shortened: as §1

[17] = system: hT2R63; assay: hT2R panel inhibition, transient HEK293 G16g44, agonist Caffeine 1 mM or Andrographolide 100 μM; type: cell-based, human; settings: compound at 25 μM; receptor activated to EC80 with the corresponding agonist
Procedure, shortened: as §1

[18] = target: hT2R5 (Homo sapiens (Human), UniProt Q9NYW4); assay: hT2R panel inhibition, transient HEK293 G16g44, agonist Picoline 10 mM; type: cell-based; settings: HEK293, compound at 25 μM; receptor activated to EC80 with the corresponding agonist; read-out: screening result against bitter receptor 5
Procedure, shortened: as §1

[19] = system: hT2R67; assay: hT2R panel inhibition, transient HEK293 G16g44, agonist Andrographolide 5 μM; type: cell-based, human; settings: compound at 25 μM; receptor activated to EC80 with the corresponding agonist
Procedure, shortened: as §1

[20] = read-out: IC50 on hT2R14 bitter receptor

T1 sequence (Q9NYV8 whole entry): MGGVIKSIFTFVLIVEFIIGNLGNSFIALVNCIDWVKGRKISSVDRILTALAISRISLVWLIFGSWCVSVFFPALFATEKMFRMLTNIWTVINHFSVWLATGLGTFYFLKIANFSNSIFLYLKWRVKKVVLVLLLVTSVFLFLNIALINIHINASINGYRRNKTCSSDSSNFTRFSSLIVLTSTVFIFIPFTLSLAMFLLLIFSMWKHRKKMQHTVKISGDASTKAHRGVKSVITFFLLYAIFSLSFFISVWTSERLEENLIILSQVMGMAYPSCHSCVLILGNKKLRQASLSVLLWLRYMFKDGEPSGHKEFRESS
Sequence of hT2R64 (P59538 whole entry): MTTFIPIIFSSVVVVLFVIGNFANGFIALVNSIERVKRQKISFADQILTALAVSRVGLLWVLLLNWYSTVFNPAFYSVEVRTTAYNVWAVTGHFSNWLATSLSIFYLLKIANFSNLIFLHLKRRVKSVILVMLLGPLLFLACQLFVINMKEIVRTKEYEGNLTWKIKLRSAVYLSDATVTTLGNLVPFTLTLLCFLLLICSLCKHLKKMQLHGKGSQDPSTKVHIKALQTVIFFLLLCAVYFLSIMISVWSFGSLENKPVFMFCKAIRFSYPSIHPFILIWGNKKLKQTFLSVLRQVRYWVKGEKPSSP
Sequence of hT2R7 (Q9NYW3 whole entry): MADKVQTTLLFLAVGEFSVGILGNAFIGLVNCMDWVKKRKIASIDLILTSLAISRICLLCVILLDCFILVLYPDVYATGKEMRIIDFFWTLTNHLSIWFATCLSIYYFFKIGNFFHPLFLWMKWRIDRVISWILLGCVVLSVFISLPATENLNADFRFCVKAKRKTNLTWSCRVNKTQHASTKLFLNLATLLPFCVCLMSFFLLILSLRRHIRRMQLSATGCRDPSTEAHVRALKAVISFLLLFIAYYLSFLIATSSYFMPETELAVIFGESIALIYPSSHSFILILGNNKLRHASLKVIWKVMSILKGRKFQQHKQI
Sequence of hT2R71 (P59536 whole entry): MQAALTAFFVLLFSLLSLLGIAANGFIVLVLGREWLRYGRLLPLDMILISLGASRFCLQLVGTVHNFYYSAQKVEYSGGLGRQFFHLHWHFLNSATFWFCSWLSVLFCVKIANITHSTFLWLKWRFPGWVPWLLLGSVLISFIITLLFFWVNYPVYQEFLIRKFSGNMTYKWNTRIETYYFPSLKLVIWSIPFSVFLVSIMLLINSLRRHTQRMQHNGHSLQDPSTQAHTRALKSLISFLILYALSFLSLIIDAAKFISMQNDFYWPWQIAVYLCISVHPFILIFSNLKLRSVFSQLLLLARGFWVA
Sequence of hT2R75 (P59540 whole entry): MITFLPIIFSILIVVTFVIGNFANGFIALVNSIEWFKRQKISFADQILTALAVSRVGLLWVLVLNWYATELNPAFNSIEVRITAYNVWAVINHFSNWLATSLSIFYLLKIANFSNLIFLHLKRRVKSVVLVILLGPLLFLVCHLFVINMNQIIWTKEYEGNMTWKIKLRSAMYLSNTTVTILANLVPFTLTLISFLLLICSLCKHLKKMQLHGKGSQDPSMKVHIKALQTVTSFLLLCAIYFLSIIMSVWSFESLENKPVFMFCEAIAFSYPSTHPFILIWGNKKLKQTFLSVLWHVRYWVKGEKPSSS
Sequence of hT2R16 (Q9NYV7 whole entry): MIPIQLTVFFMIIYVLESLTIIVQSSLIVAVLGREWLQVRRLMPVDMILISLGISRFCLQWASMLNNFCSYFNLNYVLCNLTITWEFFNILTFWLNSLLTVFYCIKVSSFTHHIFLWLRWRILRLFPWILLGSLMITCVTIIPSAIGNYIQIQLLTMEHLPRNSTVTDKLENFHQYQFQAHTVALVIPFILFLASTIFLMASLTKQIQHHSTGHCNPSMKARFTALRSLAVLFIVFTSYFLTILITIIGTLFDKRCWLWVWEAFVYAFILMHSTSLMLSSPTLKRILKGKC
Sequence of hT2R10 (Q9NYW0 whole entry): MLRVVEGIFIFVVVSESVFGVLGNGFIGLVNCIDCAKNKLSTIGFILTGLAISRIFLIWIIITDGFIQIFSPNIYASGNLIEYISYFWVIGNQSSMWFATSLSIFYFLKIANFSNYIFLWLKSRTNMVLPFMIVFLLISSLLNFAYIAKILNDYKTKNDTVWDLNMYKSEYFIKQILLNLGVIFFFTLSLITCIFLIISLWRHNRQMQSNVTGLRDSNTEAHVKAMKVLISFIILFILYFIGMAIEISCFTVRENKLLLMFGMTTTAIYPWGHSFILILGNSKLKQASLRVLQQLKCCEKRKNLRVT
Sequence of hT2R4 (Q9NYW5 whole entry): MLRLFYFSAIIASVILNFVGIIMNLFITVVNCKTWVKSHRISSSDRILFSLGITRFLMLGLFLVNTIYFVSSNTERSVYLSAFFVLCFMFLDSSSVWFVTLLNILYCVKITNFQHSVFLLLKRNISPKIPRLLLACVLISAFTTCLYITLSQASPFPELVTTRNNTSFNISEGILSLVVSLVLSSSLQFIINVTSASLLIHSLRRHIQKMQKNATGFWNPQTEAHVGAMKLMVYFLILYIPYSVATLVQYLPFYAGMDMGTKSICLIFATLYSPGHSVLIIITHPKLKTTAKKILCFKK
Sequence of hT2R61 (P59537 whole entry): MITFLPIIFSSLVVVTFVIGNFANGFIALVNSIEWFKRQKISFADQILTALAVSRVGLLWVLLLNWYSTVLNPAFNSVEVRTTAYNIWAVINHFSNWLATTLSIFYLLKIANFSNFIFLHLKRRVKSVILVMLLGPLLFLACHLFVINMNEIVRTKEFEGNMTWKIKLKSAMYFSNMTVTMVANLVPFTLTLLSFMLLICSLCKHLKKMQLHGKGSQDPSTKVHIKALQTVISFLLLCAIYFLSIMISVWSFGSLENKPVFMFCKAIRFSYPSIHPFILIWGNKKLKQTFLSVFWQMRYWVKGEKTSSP
Sequence of hT2R3 (Q9NYW6 whole entry): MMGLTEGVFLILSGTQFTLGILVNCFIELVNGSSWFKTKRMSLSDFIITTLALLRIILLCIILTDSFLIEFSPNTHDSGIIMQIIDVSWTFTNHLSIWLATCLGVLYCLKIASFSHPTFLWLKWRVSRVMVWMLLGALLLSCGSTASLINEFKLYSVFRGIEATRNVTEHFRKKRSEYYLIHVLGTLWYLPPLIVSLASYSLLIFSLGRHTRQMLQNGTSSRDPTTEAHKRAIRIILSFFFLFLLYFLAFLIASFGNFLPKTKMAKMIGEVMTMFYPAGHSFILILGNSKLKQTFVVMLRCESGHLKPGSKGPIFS
Sequence of hT2R5 (Q9NYW4 whole entry): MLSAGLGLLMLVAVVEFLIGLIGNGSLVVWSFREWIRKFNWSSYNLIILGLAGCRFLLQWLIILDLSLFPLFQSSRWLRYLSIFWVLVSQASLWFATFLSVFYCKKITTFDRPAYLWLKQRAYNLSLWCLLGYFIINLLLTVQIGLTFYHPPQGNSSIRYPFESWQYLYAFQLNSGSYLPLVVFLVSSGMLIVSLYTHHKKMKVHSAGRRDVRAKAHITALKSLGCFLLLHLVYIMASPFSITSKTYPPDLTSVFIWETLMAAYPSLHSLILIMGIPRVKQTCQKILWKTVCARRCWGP
Sequence of hT2R51 (P59533 whole entry): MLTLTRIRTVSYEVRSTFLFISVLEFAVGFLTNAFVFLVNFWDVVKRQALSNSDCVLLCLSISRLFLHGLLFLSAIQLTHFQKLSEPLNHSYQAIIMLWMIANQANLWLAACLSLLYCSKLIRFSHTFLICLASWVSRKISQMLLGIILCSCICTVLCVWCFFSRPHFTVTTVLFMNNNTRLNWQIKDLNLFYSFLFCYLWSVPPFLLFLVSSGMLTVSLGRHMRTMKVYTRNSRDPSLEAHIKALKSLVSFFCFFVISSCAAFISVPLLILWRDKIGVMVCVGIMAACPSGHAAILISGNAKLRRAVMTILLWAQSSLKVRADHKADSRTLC

Row | Structure (SMILES) | inhibition at 25 µM [1] | inhibition at 25 µM [2] | inhibition at 25 µM [3] | inhibition at 25 µM [4] | screening result against bitter receptor 54 [5] | inhibition at 25 µM [6] | inhibition at 25 µM [7] | screening result against bitter receptor 65 [8] | inhibition at 25 µM [9] | inhibition at 25 µM [10] | screening result against bitter receptor 55 [11] | inhibition at 25 µM [12] | IC50 [13, 20] | inhibition at 25 µM [14] | screening result against bitter receptor 44 [15] | inhibition at 25 µM [16] | screening result against bitter receptor 63 [17] | inhibition at 25 µM [18] | IC50 ([13]; Table C, read-out: hT2R14 IC50) | screening result against bitter receptor 67 [19]
1 | COc1cccc(CN(Cc2ccco2)S(=O)(=O)c2ccc(C(=O)O)cc2)c1 [Example 5-6, 4-(N-(furan-2-ylmethyl)-N-(3-methoxybenzyl)sulfamoyl)benzoic acid] | > 80% | 40 to 60% | 20 to 40% | 20 to 40% | + (20% to 40% inhibition = +) | 20 to 40% | 40 to 60% | + (20% to 40% inhibition = +) | > 80% | 40 to 60% | ++++ (80% or greater inhibition = ++++) | > 80% | 10 µM | 20 to 40% | ++ (40% to 60% inhibition = ++) | 20 to 40% | ++++ (80% or greater inhibition = ++++) | – | – | –
2 | O=C(O)C1CCC(CN(Cc2ccc(F)cc2)S(=O)(=O)c2ccccc2)CC1 (stereo not shown) [Example 5-22, 4-((N-(4-fluorobenzyl)phenylsulfonamido)methyl)-cyclohexanecarboxylic acid] | > 80% | 20 to 40% | 40 to 60% | 40 to 60% | – | 20 to 40% | – | – | > 80% | 40 to 60% | +++ (60% to 80% inhibition = +++) | 40 to 60% | 0.24 µM | 20 to 40% | ++ (40% to 60% inhibition = ++) | 20 to 40% | +++ (60% to 80% inhibition = +++) | – | – | –
3 | CCN(Cc1ccc(OC)cc1)S(=O)(=O)c1ccc(C(=O)O)cc1 [Example 5-4, 4-(N-ethyl-N-(4-methoxybenzyl)sulfamoyl)benzoic acid] | 20 to 40% | 40 to 60% | – | 20 to 40% | – | 20 to 40% | – | – | 40 to 60% | – | ++++ (80% or greater inhibition = ++++) | > 80% | 20 µM and 10 µM | – | – | – | +++ (60% to 80% inhibition = +++) | – | – | –
4 | O=C(O)c1ccc(CN(Cc2ccc(F)cc2)S(=O)(=O)c2ccccc2)cc1 [Example 5-105, 4-((N-(4-fluorobenzyl)phenylsulfonamido)methyl)-benzoic acid] | > 80% | 20 to 40% | 20 to 40% | 20 to 40% | + (20% to 40% inhibition = +) | 20 to 40% | – | +++ (60% to 80% inhibition = +++) | > 80% | 60 to 80% | ++++ (80% or greater inhibition = ++++) | > 80% | – | 20 to 40% | ++ (40% to 60% inhibition = ++) | 40 to 60% | ++ (40% to 60% inhibition = ++) | 20 to 40% | 0.935 µM | ++ (40% to 60% inhibition = ++)
